# Measurements taken from US6803466B1, “HIV/FIV protease inhibitors having a small P3 residue” (The Scripps Research Institute, priority 1997, dated 2004).
# Tested on: MT-2 cells
# Assay: Toxicity to host cells of the HIV assay
# Assay type: cell-based
# Method: The results from tissue culture assays against SIV (FIG. 14) and HIV (FIG. 14) were equally encouraging. […] The effectiveness of compound 1200 against HIV was measured by determining the percentage of viable cells remaining in culture over time in the presence and absence of drug (FIG. 14). In the control, HIV caused formation of multinucleated syncytia and 100% cell death by 9 days post infection. However, the cells cultured with 1 μg/ml (1.1 μM) or 5 μg/ml (5.5 μM) of inhibitor 1200 remained 100% viable after 1 month, identical to results obtained in the absence of virus infection. To test for virus in these cultures, supernatants were removed and added to 1×10^5 uninfected MT-2 cells after a 1:5 dilution with fresh CM. […]
# WEAU-1.6, a kind gift of George Shaw, University of Alabama (^18), a CXCR4 utilizing isolate, was used for all studies. […] For testiing of the antiviral efficacy of compound 1200 in MT-2 were assessed every day using a Olympus (model) inverted microscope equipped with phase contrast objectives. […] A total of 200 cells were counted in each well, and when syncytia were noted, cells were removed and tested for viability by using trypan-blue. Results are expressed as the average of viable cells.
smiles,measurement,value
CC(C)[C@H](NC(=O)[C@H](C)NC(=O)OCc1ccccc1)C(=O)N[C@@H](Cc1ccccc1)[C@@H](O)[C@H](O)[C@H](Cc1ccccc1)NC(=O)[C@@H](NC(=O)[C@H](C)NC(=O)OCc1ccccc1)C(C)C [Compound 1b],toxicity to host cells,minimal toxicity
